From BindingDB's records for doi:10.1016/0960-894X(95)00162-M (1995)

Molecular target: Beta-lactamase TEM (Escherichia coli) (UniProt P62593)
Assay: Kd for TEM-1 beta-lactamase

Beta-lactamase TEM (Escherichia coli), sequence (P62593 whole entry, looked up): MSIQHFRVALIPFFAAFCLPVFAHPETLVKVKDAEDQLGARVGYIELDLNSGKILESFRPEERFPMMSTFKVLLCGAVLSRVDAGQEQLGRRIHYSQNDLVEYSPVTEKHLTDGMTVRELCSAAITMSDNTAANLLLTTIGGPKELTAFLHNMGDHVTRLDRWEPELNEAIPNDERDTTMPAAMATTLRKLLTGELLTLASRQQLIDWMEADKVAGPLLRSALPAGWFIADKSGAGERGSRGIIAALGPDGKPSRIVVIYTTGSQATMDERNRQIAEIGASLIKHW

C/C=C1\O[C@@H]2CC(=O)N2[C@H]1C(=O)O [Sodium; (2R,5R)-3-eth-(Z)-ylidene-7-oxo-4-oxa-1-aza-bicyclo[3.2.0]heptane-2-carboxylate]
Kd: 800 nM
